Results: US10016379B2, “Method of treatment for third spacing” (priority 2015, dated 2018)

Legend:
[1] = test system: patient's asthma, fluid retention, fatigue, weight loss and photo dermatitis; experiment: Example 1: patient case, furosemide stopped and replaced with ethacrynic acid; format: in vivo; details: one patient
Excerpt: In this case it is thought that decreasing the medications for allergies the patient was on may have contributed to the unmasking of an allergy to one of the components in the trade name compound.

[2] = test system: third spacing of fluid refractory to sulfa/sulfonamide; experiment: Example 2: patient case, sulfa/sulfonamide compound stopped and patient placed on ethacrynic acid; format: in vivo; details: one patient; in one month; ethacrynic acid for a short period while stopping the sulfa/sulfonamide compound
Excerpt: A patient who suffered from a mental impairment but knew they were allergic to sulfa/sulfonamide compounds (their blood pressure fell), had clinical evidence of edema even though the patient was on a potent sulfa/sulfonamide medication. The patient was placed on ethacrynic acid for a short period of time while stopping the sulfa/sulfonamide compound and in one month, 40 pounds of fluid was removed. In this case, the patient not only had clinical evidence of edema, they also had third spacing of fluid refractory to sulfa/sulfonamide they were on. Unfortunately the patient was lost to follow up.

`C=C(CC)C(=O)c1ccc(OCC(=O)O)c(Cl)c1Cl` [ethacrynic acid] was tested, and the laboratory studies ([1]; after replacing furosemide with ethacrynic acid) was “resolution of pyuria”, the “asthma, fluid retention, fatigue, weight loss and photo dermatitis” value ([1]; after stopping furosemide and replacing it with ethacrynic acid) was “improve within one weeks-time” and the “use of other medications for asthma, myalgia, dyspepsia and other symptoms” value ([1]; during ethacrynic acid treatment) was “less use or even elimination of other medications”. The “tolerability (reason the patient could not continue the medication)” value ([1]; trade name compound) was “adverse reaction to one of the constituents in the trade name compound” and the fluid removed [2] was 40 pounds.
